Numbers after ± are expanded uncertainties.

For this series the following is noted: Crystal; DTA.

Consider `Nc1ccc(O)c2c1C(=O)c1c(O)cc(Br)c(N)c1C2=O` [1,5-diaminobromo-4,8-dihydroxyanthraquinone], for which the Triple point temperature is on record as 453.4 ± 1.1 K.

For the origin of these results see the NIST ThermoML archive (doi:10.1021/je800646h).
